Assays:
Test in all cases: relative viability (nuclei count vs DMSO), 5 days (fraction); higher = more cells survive
201T = system: 201T
Summary of the method: (§1)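 For relative viability, nuclei counts in treated wells were divided by those in vehicle wells. Lung cancer cell lines had been pin-tool dosed in 1536-well plates the day after seeding and cultured for 5 days, then fixed and stained in one step (final 0.05% Triton X-100, 1% formaldehyde, 1 ug/ml Hoechst) and imaged at 4×. Doses were one drug alone or a fixed anchor-drug dose plus five library-drug doses (not always all listed) in √10 steps, and values are duplicate-plate medians.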

A-427 = system: A-427
Summary of the method: as §1

COR-L23 = system: COR-L23
Summary of the method: as §1

H3255 = system: H3255
Summary of the method: as §1

LCLC-103H = system: LCLC-103H
Summary of the method: as §1

LCLC-97TM1 = system: LCLC-97TM1
Summary of the method: as §1

LK-2 = system: LK-2
Summary of the method: as §1

LU99A = system: LU99A
Summary of the method: as §1

NCI-H1563 = system: NCI-H1563
Summary of the method: as §1

NCI-H1650 = system: NCI-H1650
Summary of the method: as §1

NCI-H1651 = system: NCI-H1651
Summary of the method: as §1

NCI-H1793 = system: NCI-H1793
Summary of the method: as §1

NCI-H1944 = system: NCI-H1944
Summary of the method: as §1

NCI-H2347 = system: NCI-H2347
Summary of the method: as §1

NCI-H23 = system: NCI-H23
Summary of the method: as §1

NCI-H460 = system: NCI-H460
Summary of the method: as §1

NCI-H650 = system: NCI-H650
Summary of the method: as §1

NCI-H727 = system: NCI-H727
Summary of the method: as §1

NCI-H838 = system: NCI-H838
Summary of the method: as §1

PC-14 = system: PC-14
Summary of the method: as §1

PC-3 [JPC-3] = system: PC-3 [JPC-3]
Summary of the method: as §1

RERF-LC-KJ = system: RERF-LC-KJ
Summary of the method: as §1

SW 1573 = system: SW 1573
Summary of the method: as §1

SW 900 = system: SW 900
Summary of the method: as §1

In the case of `COc1cc(N2CCC(C(N)=O)CC2)ccc1Nc1nc(N)c(Cl)c(Nc2ccccc2S(=O)(=O)C(C)C)n1` [HG-5-88-01] + Cc1nc(Nc2ncc(C(=O)Nc3c(C)cccc3Cl)s2)cc(N2CCN(CCO)CC2)n1 [Dasatinib] (partner 0.075 µM), the relative viability (201T; first compound 0.04 µM) is reported as 0.616, the relative viability (201T; first compound 0.1265 µM) is reported as 0.56 and the relative viability (201T; first compound 0.4 µM) is reported as 0.545. It also gave a relative viability (201T; first compound 1.265 µM) of 0.512, a relative viability (201T; first compound 4 µM) of 0.267 and a relative viability (A-427; first compound 0.04 µM) of 0.77. For the same molecule, the relative viability (A-427; first compound 0.1265 µM) was 0.686, the relative viability (A-427; first compound 0.4 µM) was 0.676 and the relative viability (A-427; first compound 1.265 µM) was 0.746. For the same molecule, the relative viability (A-427; first compound 4 µM) was 0.431, the relative viability (COR-L23; first compound 0.04 µM) was 0.536 and the relative viability (COR-L23; first compound 0.1265 µM) was 0.465. It also gave a relative viability (COR-L23; first compound 0.4 µM) of 0.436, a relative viability (COR-L23; first compound 1.265 µM) of 0.374 and a relative viability (COR-L23; first compound 4 µM) of 0.169. It also gave a relative viability (H3255; first compound 0.04 µM) of 0.338, a relative viability (H3255; first compound 0.1265 µM) of 0.411 and a relative viability (H3255; first compound 0.4 µM) of 0.355. It also gave a relative viability (H3255; first compound 4 µM) of 0.2, a relative viability (LCLC-103H; first compound 0.04 µM) of 0.522 and a relative viability (LCLC-103H; first compound 0.1265 µM) of 0.464. The relative viability (LCLC-103H; first compound 0.4 µM) was 0.418, the relative viability (LCLC-103H; first compound 1.265 µM) was 0.373 and the relative viability (LCLC-103H; first compound 4 µM) was 0.341. The relative viability (LCLC-97TM1; first compound 0.04 µM) was 0.753, the relative viability (LCLC-97TM1; first compound 0.1265 µM) was 0.956 and the relative viability (LCLC-97TM1; first compound 0.4 µM) was 0.481. For the same molecule, the relative viability (LCLC-97TM1; first compound 1.265 µM) was 0.714, the relative viability (LCLC-97TM1; first compound 4 µM) was 0.477 and the relative viability (LK-2; first compound 0.04 µM) was 0.334. For the same molecule, the relative viability (LK-2; first compound 0.1265 µM) was 0.235, the relative viability (LK-2; first compound 0.4 µM) was 0.173 and the relative viability (LK-2; first compound 1.265 µM) was 0.247. The relative viability (LK-2; first compound 4 µM) was 0.184, the relative viability (LU99A; first compound 0.04 µM) was 0.592 and the relative viability (LU99A; first compound 0.1265 µM) was 0.496. It also gave a relative viability (LU99A; first compound 0.4 µM) of 0.434, a relative viability (LU99A; first compound 1.265 µM) of 0.21 and a relative viability (LU99A; first compound 4 µM) of 0.237. For the same molecule, the relative viability (NCI-H1563; first compound 0.04 µM) was 0.453, the relative viability (NCI-H1563; first compound 0.1265 µM) was 0.445 and the relative viability (NCI-H1563; first compound 0.4 µM) was 0.436. For the same molecule, the relative viability (NCI-H1563; first compound 1.265 µM) was 0.367, the relative viability (NCI-H1563; first compound 4 µM) was 0.381 and the relative viability (NCI-H1650; first compound 0.04 µM) was 0.324. For the same molecule, the relative viability (NCI-H1650; first compound 0.1265 µM) was 0.327, the relative viability (NCI-H1650; first compound 0.4 µM) was 0.278 and the relative viability (NCI-H1650; first compound 1.265 µM) was 0.232. For the same molecule, the relative viability (NCI-H1650; first compound 4 µM) was 0.221, the relative viability (NCI-H1651; first compound 0.04 µM) was 0.368 and the relative viability (NCI-H1651; first compound 0.1265 µM) was 0.619. For the same molecule, the relative viability (NCI-H1651; first compound 0.4 µM) was 0.375, the relative viability (NCI-H1651; first compound 1.265 µM) was 0.249 and the relative viability (NCI-H1651; first compound 4 µM) was 0.246. The relative viability (NCI-H1793; first compound 0.1265 µM) was 0.617, the relative viability (NCI-H1793; first compound 0.4 µM) was 0.355 and the relative viability (NCI-H1793; first compound 4 µM) was 0.336. It also gave a relative viability (NCI-H1944; first compound 0.04 µM) of 0.205, a relative viability (NCI-H1944; first compound 0.1265 µM) of 0.201 and a relative viability (NCI-H1944; first compound 0.4 µM) of 0.233. The relative viability (NCI-H1944; first compound 1.265 µM) was 0.191, the relative viability (NCI-H1944; first compound 4 µM) was 0.188 and the relative viability (NCI-H2347; first compound 0.04 µM) was 0.267. The relative viability (NCI-H2347; first compound 0.1265 µM) was 0.319, the relative viability (NCI-H2347; first compound 0.4 µM) was 0.318 and the relative viability (NCI-H2347; first compound 1.265 µM) was 0.303. It also gave a relative viability (NCI-H2347; first compound 4 µM) of 0.295, a relative viability (NCI-H23; first compound 0.04 µM) of 0.703 and a relative viability (NCI-H23; first compound 0.1265 µM) of 0.84. For the same molecule, the relative viability (NCI-H23; first compound 0.4 µM) was 0.51, the relative viability (NCI-H23; first compound 1.265 µM) was 0.588 and the relative viability (NCI-H23; first compound 4 µM) was 0.265. It also gave a relative viability (NCI-H460; first compound 0.04 µM) of 0.481, a relative viability (NCI-H460; first compound 0.1265 µM) of 0.56 and a relative viability (NCI-H460; first compound 0.4 µM) of 0.316. It also gave a relative viability (NCI-H460; first compound 1.265 µM) of 0.255, a relative viability (NCI-H460; first compound 4 µM) of 0.0831 and a relative viability (NCI-H650; first compound 0.04 µM) of 0.441. It also gave a relative viability (NCI-H650; first compound 0.1265 µM) of 0.46, a relative viability (NCI-H650; first compound 0.4 µM) of 0.378 and a relative viability (NCI-H650; first compound 1.265 µM) of 0.391. It also gave a relative viability (NCI-H650; first compound 4 µM) of 0.304, a relative viability (NCI-H727; first compound 0.04 µM) of 0.335 and a relative viability (NCI-H727; first compound 0.1265 µM) of 0.334. It also gave a relative viability (NCI-H727; first compound 0.4 µM) of 0.282, a relative viability (NCI-H727; first compound 1.265 µM) of 0.173 and a relative viability (NCI-H727; first compound 4 µM) of 0.217. It also gave a relative viability (NCI-H838; first compound 0.04 µM) of 0.266, a relative viability (NCI-H838; first compound 0.1265 µM) of 0.279 and a relative viability (NCI-H838; first compound 0.4 µM) of 0.233. It also gave a relative viability (NCI-H838; first compound 1.265 µM) of 0.251, a relative viability (NCI-H838; first compound 4 µM) of 0.181 and a relative viability (PC-14; first compound 0.04 µM) of 0.234. The relative viability (PC-14; first compound 0.1265 µM) was 0.185, the relative viability (PC-14; first compound 0.4 µM) was 0.0685 and the relative viability (PC-14; first compound 1.265 µM) was 0.0374. For the same molecule, the relative viability (PC-14; first compound 4 µM) was 0.0307, the relative viability (PC-3 [JPC-3]; first compound 0.04 µM) was 1.03 and the relative viability (PC-3 [JPC-3]; first compound 0.1265 µM) was 0.982. The relative viability (PC-3 [JPC-3]; first compound 0.4 µM) was 0.902, the relative viability (PC-3 [JPC-3]; first compound 1.265 µM) was 0.936 and the relative viability (PC-3 [JPC-3]; first compound 4 µM) was 0.814. For the same molecule, the relative viability (RERF-LC-KJ; first compound 0.04 µM) was 0.804, the relative viability (RERF-LC-KJ; first compound 0.1265 µM) was 0.81 and the relative viability (RERF-LC-KJ; first compound 0.4 µM) was 0.671. For the same molecule, the relative viability (RERF-LC-KJ; first compound 1.265 µM) was 0.465, the relative viability (RERF-LC-KJ; first compound 4 µM) was 0.41 and the relative viability (SW 1573; first compound 0.04 µM) was 0.425. The relative viability (SW 1573; first compound 0.1265 µM) was 0.426, the relative viability (SW 1573; first compound 0.4 µM) was 0.353 and the relative viability (SW 1573; first compound 1.265 µM) was 0.279. It also gave a relative viability (SW 1573; first compound 4 µM) of 0.266, a relative viability (SW 900; first compound 0.04 µM) of 0.848 and a relative viability (SW 900; first compound 0.1265 µM) of 0.548. It also gave a relative viability (SW 900; first compound 0.4 µM) of 0.391, a relative viability (SW 900; first compound 1.265 µM) of 0.578 and a relative viability (SW 900; first compound 4 µM) of 0.17.
